In US8404643B2, “Metastin derivatives and use thereof” (priority 2005, dated 2013):
Square brackets hold non-standard residues; d marks the D form. Peptide text beside a SMILES is read from it. Phe(4-Cl) = N[C@@H](Cc1ccc(Cl)cc1)C(=O)O; Phe(3-F) = N[C@@H](Cc1cccc(F)c1)C(=O)O; Phe(2-F) = N[C@@H](Cc1ccccc1F)C(=O)O; Arg(Me) = CNC(=N)NCCC[C@H](N)C(=O)O; Hyp = O=C(O)[C@@H]1C[C@@H](O)CN1; Pip(4-aza) = O=C(O)[C@@H]1CNCCN1; azaGly = NNC(=O)O; βAla = NCCC(=O)O

Each compound was assayed against T1, hOT7T175 (Homo sapiens, UniProt Q969F8) (assay: Assay for intracellular Ca ion level-increasing activity using FLIPR). Details: hOT7T175/CHO cells, relative to Metastin (1-54).
T1 construct: expressed in transfected cells
Type: cell-based
Method in brief: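 CHO/dhfr− cells stably transfected with hOT7T175, selected for high metastin response, loaded with Fluo3-AM for 1 h at 37 °C in HANKS/HBSS (pH 7.4) with probenecid. Peptides were diluted from 1×10^−3 M DMSO stock into HANKS/HBSS with 2.5 mM probenecid, 0.2% BSA, 0.1% CHAPS; intracellular Ca rise read by FLIPR.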

T1 sequence (Q969F8 whole entry L364H): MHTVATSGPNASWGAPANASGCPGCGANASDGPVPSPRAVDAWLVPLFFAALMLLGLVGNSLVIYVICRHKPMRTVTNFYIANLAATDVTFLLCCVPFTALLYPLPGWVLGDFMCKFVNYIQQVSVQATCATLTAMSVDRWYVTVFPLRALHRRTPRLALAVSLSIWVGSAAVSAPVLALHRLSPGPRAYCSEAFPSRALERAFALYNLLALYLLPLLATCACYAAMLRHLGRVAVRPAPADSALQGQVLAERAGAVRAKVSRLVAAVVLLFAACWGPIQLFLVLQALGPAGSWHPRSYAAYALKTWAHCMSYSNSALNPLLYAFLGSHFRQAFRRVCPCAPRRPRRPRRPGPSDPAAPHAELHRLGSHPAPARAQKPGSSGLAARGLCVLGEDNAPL

Specific Activity: intracellular Ca ion level-increasing activity [specific activity to Metastin (1-54)]	SMILES
2.6	CNC(=N)NCCC[C@H](NC(=O)[C@H](CC(C)C)NC(=O)NNC(=O)[C@H](Cc1ccccc1)NC(=O)[C@@H](NC(=O)[C@H](CC(N)=O)NC(=O)CCNC(=O)[C@@H](Cc1ccc(O)cc1)NC(C)=O)[C@@H](C)O)C(=O)N[C@@H](Cc1c[nH]c2ccccc12)C(N)=O [Compound No. 747, Ac-D-Tyr-β-Ala-Asn-Thr-Phe-AzaGly-Leu-Arg(Me)-Trp-NH2] (Ac-[dY][βAla]NTF[azaGly]L[Arg(Me)]W-NH2)
0.4	CNC(=N)NCCC[C@H](NC(=O)[C@H](CC(C)C)NC(=O)NNC(=O)[C@H](Cc1ccc(Cl)cc1)NC(=O)[C@@H](NC(=O)[C@H](CC(N)=O)NC(=O)[C@@H](Cc1c[nH]c2ccccc12)NC(=O)[C@@H](Cc1ccc(O)cc1)NC(C)=O)[C@@H](C)O)C(=O)N[C@@H](Cc1c[nH]c2ccccc12)C(N)=O [Compound No. 748, Ac-D-Tyr-D-Trp-Asn-Thr-Phe(4Cl)-AzaGly-Leu-Arg(Me)-Trp-NH2] (Ac-[dY][dW]NT[Phe(4-Cl)][azaGly]L[Arg(Me)]W-NH2)
0.5	CNC(=N)NCCC[C@H](NC(=O)[C@H](CC(C)C)NC(=O)NNC(=O)[C@H](Cc1ccccc1F)NC(=O)[C@@H](NC(=O)[C@H](CC(N)=O)NC(=O)[C@@H](Cc1c[nH]c2ccccc12)NC(=O)[C@@H](Cc1ccc(O)cc1)NC(C)=O)[C@@H](C)O)C(=O)N[C@@H](Cc1c[nH]c2ccccc12)C(N)=O [Compound No. 749, Ac-D-Tyr-D-Trp-Asn-Thr-Phe(2F)-AzaGly-Leu-Arg(Me)-Trp-NH2] (Ac-[dY][dW]NT[Phe(2-F)][azaGly]L[Arg(Me)]W-NH2)
1.0	CNC(=N)NCCC[C@H](NC(=O)[C@H](CC(C)C)NC(=O)NNC(=O)[C@H](Cc1cccc(F)c1)NC(=O)[C@@H](NC(=O)[C@H](CC(N)=O)NC(=O)[C@@H](Cc1c[nH]c2ccccc12)NC(=O)[C@@H](Cc1ccc(O)cc1)NC(C)=O)[C@@H](C)O)C(=O)N[C@@H](Cc1c[nH]c2ccccc12)C(N)=O [Compound No. 750, Ac-D-Tyr-D-Trp-Asn-Thr-Phe(3F)-AzaGly-Leu-Arg(Me)-Trp-NH2] (Ac-[dY][dW]NT[Phe(3-F)][azaGly]L[Arg(Me)]W-NH2)
3.1	CNC(=N)NCCC[C@H](NC(=O)[C@H](CC(C)C)NC(=O)NNC(=O)[C@H](Cc1ccccc1F)NC(=O)[C@@H](NC(=O)[C@H](CC(N)=O)NC(=O)[C@H](CCCCN)NC(=O)[C@@H](Cc1ccc(O)cc1)NC(C)=O)[C@@H](C)O)C(=O)N[C@@H](Cc1c[nH]c2ccccc12)C(N)=O [Compound No. 754, Ac-D-Tyr-Lys-Asn-Thr-Phe(2F)-AzaGly-Leu-Arg(Me)-Trp-NH2] (Ac-[dY]KNT[Phe(2-F)][azaGly]L[Arg(Me)]W-NH2)
3.5	CNC(=N)NCCC[C@H](NC(=O)[C@H](CC(C)C)NC(=O)NNC(=O)[C@H](Cc1ccccc1F)NC(=O)[C@@H](NC(=O)[C@H](CC(N)=O)NC(=O)[C@H](CCC(=O)O)NC(=O)[C@@H](Cc1ccc(O)cc1)NC(C)=O)[C@@H](C)O)C(=O)N[C@@H](Cc1c[nH]c2ccccc12)C(N)=O [Compound No. 755, Ac-D-Tyr-Glu-Asn-Thr-Phe(2F)-AzaGly-Leu-Arg(Me)-Trp-NH2] (Ac-[dY]ENT[Phe(2-F)][azaGly]L[Arg(Me)]W-NH2)
2.4	CNC(=N)NCCC[C@H](NC(=O)[C@H](CC(C)C)NC(=O)NNC(=O)[C@H](Cc1cccc(F)c1)NC(=O)[C@@H](NC(=O)[C@H](CC(N)=O)NC(=O)[C@H](CCCCN)NC(=O)[C@@H](Cc1ccc(O)cc1)NC(C)=O)[C@@H](C)O)C(=O)N[C@@H](Cc1c[nH]c2ccccc12)C(N)=O [Compound No. 756, Ac-D-Tyr-Lys-Asn-Thr-Phe(3F)-AzaGly-Leu-Arg(Me)-Trp-NH2] (Ac-[dY]KNT[Phe(3-F)][azaGly]L[Arg(Me)]W-NH2)
2.7	CNC(=N)NCCC[C@H](NC(=O)[C@H](CC(C)C)NC(=O)NNC(=O)[C@H](Cc1cccc(F)c1)NC(=O)[C@@H](NC(=O)[C@H](CC(N)=O)NC(=O)[C@H](CCC(=O)O)NC(=O)[C@@H](Cc1ccc(O)cc1)NC(C)=O)[C@@H](C)O)C(=O)N[C@@H](Cc1c[nH]c2ccccc12)C(N)=O [Compound No. 757, Ac-D-Tyr-Glu-Asn-Thr-Phe(3F)-AzaGly-Leu-Arg(Me)-Trp-NH2] (Ac-[dY]ENT[Phe(3-F)][azaGly]L[Arg(Me)]W-NH2)
1.8	CNC(=N)NCCC[C@H](NC(=O)[C@H](CC(C)C)NC(=O)NNC(=O)[C@H](Cc1ccc(Cl)cc1)NC(=O)[C@@H](NC(=O)[C@H](CC(N)=O)NC(=O)[C@H](CCCCN)NC(=O)[C@@H](Cc1ccc(O)cc1)NC(C)=O)[C@@H](C)O)C(=O)N[C@@H](Cc1c[nH]c2ccccc12)C(N)=O [Compound No. 758, Ac-D-Tyr-Lys-Asn-Thr-Phe(4Cl)-AzaGly-Leu-Arg(Me)-Trp-NH2] (Ac-[dY]KNT[Phe(4-Cl)][azaGly]L[Arg(Me)]W-NH2)
1.9	CNC(=N)NCCC[C@H](NC(=O)[C@H](CC(C)C)NC(=O)NNC(=O)[C@H](Cc1ccc(Cl)cc1)NC(=O)[C@@H](NC(=O)[C@H](CC(N)=O)NC(=O)[C@H](CCC(=O)O)NC(=O)[C@@H](Cc1ccc(O)cc1)NC(C)=O)[C@@H](C)O)C(=O)N[C@@H](Cc1c[nH]c2ccccc12)C(N)=O [Compound No. 759, Ac-D-Tyr-Glu-Asn-Thr-Phe(4Cl)-AzaGly-Leu-Arg(Me)-Trp-NH2] (Ac-[dY]ENT[Phe(4-Cl)][azaGly]L[Arg(Me)]W-NH2)
1.7	CNC(=N)NCCC[C@H](NC(=O)[C@H](CC(C)C)NC(=O)NNC(=O)[C@H](Cc1ccccc1)NC(=O)[C@@H](NC(=O)[C@H](CC(N)=O)NC(=O)[C@@H]1CNCCN1C(=O)[C@@H](Cc1ccc(O)cc1)NC(C)=O)[C@@H](C)O)C(=O)N[C@@H](Cc1c[nH]c2ccccc12)C(N)=O [Compound No. 760, Ac-D-Tyr-Pzc(2)-Asn-Thr-Phe-AzaGly-Leu-Arg(Me)-Trp-NH2] (Ac-[dY][Pip(4-aza)]NTF[azaGly]L[Arg(Me)]W-NH2)
6.4	CNC(=N)NCCC[C@H](NC(=O)[C@H](CC(C)C)NC(=O)NNC(=O)[C@H](Cc1ccccc1F)NC(=O)[C@@H](NC(=O)[C@H](CC(N)=O)NC(=O)[C@@H]1C[C@@H](O)CN1C(=O)[C@@H](Cc1ccc(O)cc1)NC(C)=O)[C@@H](C)O)C(=O)N[C@@H](Cc1c[nH]c2ccccc12)C(N)=O [Compound No. 763, Ac-D-Tyr-Hyp-Asn-Thr-Phe(2F)-AzaGly-Leu-Arg(Me)-Trp-NH2] (Ac-[dY][Hyp]NT[Phe(2-F)][azaGly]L[Arg(Me)]W-NH2)
1.5	CNC(=N)NCCC[C@H](NC(=O)[C@H](CC(C)C)NC(=O)NNC(=O)[C@H](Cc1ccccc1F)NC(=O)[C@@H](NC(=O)[C@H](CC(N)=O)NC(=O)[C@H](Cc1c[nH]c2ccccc12)NC(=O)[C@@H](Cc1ccc(O)cc1)NC(C)=O)[C@@H](C)O)C(=O)N[C@@H](Cc1c[nH]c2ccccc12)C(N)=O [Compound No. 764, Ac-D-Tyr-Trp-Asn-Thr-Phe(2F)-AzaGly-Leu-Arg(Me)-Trp-NH2] (Ac-[dY]WNT[Phe(2-F)][azaGly]L[Arg(Me)]W-NH2)
2.6	CNC(=N)NCCC[C@H](NC(=O)[C@H](CC(C)C)NC(=O)NNC(=O)[C@H](Cc1cccc(F)c1)NC(=O)[C@@H](NC(=O)[C@H](CC(N)=O)NC(=O)[C@@H]1C[C@@H](O)CN1C(=O)[C@@H](Cc1ccc(O)cc1)NC(C)=O)[C@@H](C)O)C(=O)N[C@@H](Cc1c[nH]c2ccccc12)C(N)=O [Compound No. 765, Ac-D-Tyr-Hyp-Asn-Thr-Phe(3F)-AzaGly-Leu-Arg(Me)-Trp-NH2] (Ac-[dY][Hyp]NT[Phe(3-F)][azaGly]L[Arg(Me)]W-NH2)
0.2	CNC(=N)NCCC[C@H](NC(=O)[C@H](CC(C)C)NC(=O)NNC(=O)[C@H](Cc1cccc(F)c1)NC(=O)[C@@H](NC(=O)[C@H](CC(N)=O)NC(=O)[C@H](Cc1c[nH]c2ccccc12)NC(=O)[C@@H](Cc1ccc(O)cc1)NC(C)=O)[C@@H](C)O)C(=O)N[C@@H](Cc1c[nH]c2ccccc12)C(N)=O [Compound No. 766, Ac-D-Tyr-Trp-Asn-Thr-Phe(3F)-AzaGly-Leu-Arg(Me)-Trp-NH2] (Ac-[dY]WNT[Phe(3-F)][azaGly]L[Arg(Me)]W-NH2)
1.5	CNC(=N)NCCC[C@H](NC(=O)[C@H](CC(C)C)NC(=O)NNC(=O)[C@H](Cc1ccc(Cl)cc1)NC(=O)[C@@H](NC(=O)[C@H](CC(N)=O)NC(=O)[C@@H]1C[C@@H](O)CN1C(=O)[C@@H](Cc1ccc(O)cc1)NC(C)=O)[C@@H](C)O)C(=O)N[C@@H](Cc1c[nH]c2ccccc12)C(N)=O [Compound No. 767, Ac-D-Tyr-Hyp-Asn-Thr-Phe(4Cl)-AzaGly-Leu-Arg(Me)-Trp-NH2] (Ac-[dY][Hyp]NT[Phe(4-Cl)][azaGly]L[Arg(Me)]W-NH2)
0.6	CNC(=N)NCCC[C@H](NC(=O)[C@H](CC(C)C)NC(=O)NNC(=O)[C@H](Cc1ccc(Cl)cc1)NC(=O)[C@@H](NC(=O)[C@H](CC(N)=O)NC(=O)[C@H](Cc1c[nH]c2ccccc12)NC(=O)[C@@H](Cc1ccc(O)cc1)NC(C)=O)[C@@H](C)O)C(=O)N[C@@H](Cc1c[nH]c2ccccc12)C(N)=O [Compound No. 768, Ac-D-Tyr-Trp-Asn-Thr-Phe(4Cl)-AzaGly-Leu-Arg(Me)-Trp-NH2] (Ac-[dY]WNT[Phe(4-Cl)][azaGly]L[Arg(Me)]W-NH2)
